Where two headings read alike, the source gives them in different places.
Assays:
Bcr-Abl = Bcr-Abl immunoblot in BaF3/p210 cells; assay type: cell-based, murine; details: 4 h
Procedure: After this time cells were lysed and sonicated in S.D.S. Whole cell lysates were analyzed for Bcr-Abl and tubulin in triplicate. Panel B is a bar graph showing the quantitation of blots in Panel A. Panel C is an image of an immunoblot showing BaF3 cells were treated with various concentrations of TU50 in triplicate for 4 h, and then whole cell lysates were analyzed for Bcr-Abl and tubulin. Panel D is an image of an immunoblot similar to the experiment in Panel C but using TU46. Panel E is an image of an immunoblot similar to the experiment in Panel D but using TU49. Panel F is a plot showing the quantification of blots in Panel C, Panel D, and Panel E.
Proliferation inhibition/apoptosis assays and lysate activity profiling were all consistent with USP9x inhibition. Next, whether cell death in BaF3/p210 cells occurred through degradation of Bcr-Abl was validated. […] Encouragingly, the EC50 for Bcr-Abl degradation was 8±2 μM for TU50, which is within 2 fold of the proliferation inhibition EC50 obtained above (FIG. 7, Panel C).

DUBs = experiment: Cy5-Ub-VME activity profiling of treated BaF3/p210 cells; assay type: cell-based, murine; details: 50 μM, 4 h
Procedure: FIG. 9 has two panels (A and B) depicting data showing that TUs inhibit DUBs in cells. BaF3/p210 cells were incubated with the stated concentration of compound for 4 h. After this time cells were lysed using beads, lysates were normalized, then exposed to Cy5-Ub-VME for 5 min. After quenching, lysates were resolved by SDS-PAGE, analyzed on typhoon, then stained by Coomassie. Panel A is an image of the SDS-PAGE gel visualized via Typhoon imager. Panel B is an image of the SDS PAGE gel stained with Coomassie.
Panel A is the chemical structure of TU71. Panel B is an image of an immunoblot showing a K562 cell was treated with TU71 for 15 min at which time HAUb-VS was added. After an additional 15 min, aliquots were quenched in reducing loading buffer and analyzed by SDS-PAGE and HA blot. […] BaF3/p21 0 cells were treated with TU71 for 2.5 h (Panel C) or 4 h (Panel D). Cells were harvested, lysed and incubated (0.7 mg/mL protein) with 250 nM Cy5-UbVME for 5 min at 37° C. […] Panel E is an image of an immunoblot showing BaF3/p210 cells were incubated with TU71 for 4 h. The cells were harvested, lysed, analyzed by SDS-PAGE and immunoblotted as indicated. “cPARP” indicates the caspase cleavage of product of PARP and is indicative of apoptosis. Panel F is a bar graph showing data representative of mean±range of two independent experiments, one performed in duplicate of the blot depicted in Panel E.
The increased promiscuity of the inhibitors when the experiment is carried out in cells likely stems from the increased assay time (4 h vs 20 min) coupled with the slow on rates of the inhibitors and their targets.

[1] = target: T1, USP7 catalytic domain (USP7CD) (Homo sapiens, UniProt Q93009); experiment: USP7 catalytic domain, Cy5-Ub-VME activity profiling; assay type: biochemical; details: at 12.5 μM
T1 construct: USP7 catalytic domain (USP7CD)
Procedure: Panel A is an image showing that purified recombinant USP9x (7 nM) was treated with the stated compound at 50 μM for 19 min prior to addition of Cy5-Ub-VME for 5 min, then the mixture was resolved by S.D.S-PAGE and analyzed on a typhoon imager. Panel B is an image of an immunoblot showing purified recombinant USP9x (7 nM) and USP7CD (20 nM) were treated with the stated compound at the stated concentration for 19 min prior to addition of Cy5-Ub-VME for 5 min then the mixture was resolved by S.D.S-PAGE and analyzed on a Typhoon imager.
In addition, the amount of free inhibitor is unknown and thus the true kon could be much higher.

HeLa cells = experiment: Annexin V-FITC/PI apoptosis assay, HeLa; assay type: cell-based; details: 15 or 30 μM, 24 h
Procedure: (each point is shown as mean+/−s.d. of 2 replicates). Panel A is a bar graph showing the data for HeLa cells (30 μM); Panel B is a bar graph showing the data for K562 (30 μM); Panel C is a bar graph showing the data for K562 (15 μM).
Since K562 cells are dependent upon Bcr-Abl for survival, it was predicted that these cells would also be susceptible to TU compounds. However, K562 cells gave a very weak signal in the Alamar Blue® assay. In lieu of the Alamar Blue assay, an apoptosis assay was used to show susceptibility. This assay uses fluorescein-modified Annexin V to detect phosphatidyl serine (PS) on the cell surface. See Vermes et al., J. Immon. Meth. 184, 39-51 (1995). PS is typically expressed on the inner leaflet of the cell membrane. However in the early stages of apoptosis, PS translocates to the outer leaflet and can be bound by Annexin V. Thus, during apoptosis cells will become greener in the presence of Annexin V-Fluorescine.

MCL1 = MCL1 immunoblot in BaF3 parent cells; assay type: cell-based; details: 15 and 30 μM, 4 h
Excerpt: Panel A is an image of a immunoblot showing knockdown of MCL-1 by TU46. […] Panel C is a bar graph showing the quantitation of the blots in Panel A and Panel B.
MCL1 is required to sustain growth of many transformed cells and is also regulated by USP9x. […] These findings help to explain why these compounds are toxic to Bcr-Abl independent cancer lines, especially BaF3.

[2] = system: DUBs other than USP9x, most notably UCHL5; experiment: HA-Ubiquitin-Vinylsulfone activity profiling, other DUBs; assay type: biochemical; details: for inhibition of other DUBs other than USP9x: at 85 μM; for inhibition of other DUBs: below 25 μM
Procedure: Lysate labeling assay on untransfected cells (1.5 mg/mL lysate lysed using a Dounce homogenizer, 10 strokes, in 75 mM potassium phosphate pH 7.6, 150 mM NaCl, 0.75 mM BME) was run with the stated concentration of inhibitor (or 1% DMSO control) for 30 min. After this time HA-Ub-VS (1.5 μM) was added and incubated for 15 min. After this time reaction mixture (15 μL) was removed and quenched in 2× (final concentration) reducing Laemeli buffer. The reaction mixtures were heated to 37° C. for 10 min prior to analysis by western blot for HA. […] EC50s calculated by this method were in agreement with those found in the HA-blot.

B16-F10 = experiment: Proliferation assay, B16-F10; details: Mus musculus, B16-F10, 72 h, read-out: EC50 growth inhibition B16-F10
Procedure: Proliferation assays for adherent cells were conducted by plating cells at 5%-10% confluence in 96 well plates together with compound or 0.1% DMSO. Cells were allowed to grow for 48 h and then Alamar Blue® was added and number of cells was measured by fluorescence on a microplate reader.

[3] = whole cell lysates sonicated, read-out: EC50 for Bcr-Abl degradation/knockdown

T1 sequence (Q93009 214-521 limits assumed, species assumed): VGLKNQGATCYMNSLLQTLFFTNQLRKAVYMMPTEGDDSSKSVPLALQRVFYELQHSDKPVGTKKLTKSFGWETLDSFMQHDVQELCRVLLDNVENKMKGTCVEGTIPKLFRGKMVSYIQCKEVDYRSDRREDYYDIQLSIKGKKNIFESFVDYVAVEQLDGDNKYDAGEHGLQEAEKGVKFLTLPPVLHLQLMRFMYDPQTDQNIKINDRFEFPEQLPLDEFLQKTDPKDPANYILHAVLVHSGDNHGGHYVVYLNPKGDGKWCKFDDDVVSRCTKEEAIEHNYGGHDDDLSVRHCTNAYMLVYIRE

Row | Structure (SMILES) | EC50 (Bcr-Abl; [3]) | Cy5-Ub-VME labelled bands after treatment of cells (DUBs) | inhibition of USP7CD [1] | apoptosis in HeLa (HeLa cells) | knockdown of MCL1 (MCL1) | inhibition of other DUBs other than USP9x [2] | inhibition of other DUBs [2] | EC50 (B16-F10) | EC50 (Bcr-Abl; unsonicated, read-out: EC50 for Bcr-Abl knockdown)
1 | CC(C)(C)OC(=O)NCc1cccc(N=C=S)c1 [TU50] | 8 ± 2 µM | decrease in a number of bands in addition to the band corresponding to USP9x | little inhibition | no apoptosis was detected | very effective | weak inhibition | little inhibition | 85 ± 10 µM | 
2 | CC(C)(C)OC(=O)NCCc1ccc(N=C=S)cc1 [TU46] | 9 ± 3 µM | decrease in a number of bands in addition to the band corresponding to USP9x | little inhibition | no apoptosis was detected | very effective | weak inhibition | little inhibition | 70 ± 20 µM | 15 ± 7 µM
3 | O=C(NCc1ccc(N=C=S)cc1)OCc1ccccc1 [TU49] | 9 ± 5 µM | decrease in a number of bands in addition to the band corresponding to USP9x | little inhibition | no apoptosis was detected | not as efficient | weak inhibition | little inhibition | ~30 µM | 

— patent US10017463B2, “Inhibitors of deubiquitinating proteases” (Brandeis University, priority 2014, dated 2018)
